This assay deals with DasR (Streptomyces coelicolor, UniProt Q9K492). Briefly: EMSA binding interference experiment: ability of compounds to interfere with binding of DasR to the nagB and crr promoters. As to conditions: for effect on formation of the complex of DasR with the nagB promoter (EMSA): 10 nM fluorescent probe, 3 μM purified DasR, 500-fold excess of non-specific DNA, 50, 100, 150, and 200 mM compound; for effect on formation of the complex of DasR with the crr promoter region (EMSA): data not shown. The protocol: FIG. 12. […] EMSAs were performed with 10 nM fluorescent probe, 3 μM purified DasR, and 500-fold excess of non-specific DNA.
EMSAs were performed with fluorescent probes (10 nM) with an ALF express sequencer (Filee et al., 2001). Purified DasR (3 μM) and 1000-fold excess of non-specific DNA were used in the reaction mixture. Predicted cis-acting elements were taken from the promoter regions of actII-ORF4 (SCO5085; 5′-[…]-3′ (SEQ ID NO:530)), and redZ (SCO5881; 5′-[…]-3′ (SEQ ID NO:531)). Known cis-acting elements upstream of crr (SCO1390; […]-3′ (SEQ ID NO:532)), and crp (SCO3571; 5′-[…]-3′ (SEQ ID NO:533)) were used as positive and negative controls, respectively. The 16 nt dre sites are underlined.
A pivotal question is what is the effector molecule that modulates DasR? As shown in here, many of the targets for DasR relate to the generation (chitinolytic system), transport (PTS^GlcNAc), and metabolism (glycolysis via fructose 6-P) of N-acetylglucosamine. We therefore looked for the inducer among the intermediate molecules that gravitate around aminosugar metabolism. A binding interference experiment was set up where the ability of compounds to interfere with binding of dasR to the nagB and crr promoters was tested. […] The finding that glucosamine-6-P serves as an effector of DasR is explained by its central position at the metabolic crossroads between (GlcNAc)n extracellular degradation, N-acetylglucosamine transport and intracellular metabolism, lipid and nitrogen metabolism, glycolysis, and peptidoglycan synthesis (FIG. 13).

Chain of DasR (Q9K492 whole entry): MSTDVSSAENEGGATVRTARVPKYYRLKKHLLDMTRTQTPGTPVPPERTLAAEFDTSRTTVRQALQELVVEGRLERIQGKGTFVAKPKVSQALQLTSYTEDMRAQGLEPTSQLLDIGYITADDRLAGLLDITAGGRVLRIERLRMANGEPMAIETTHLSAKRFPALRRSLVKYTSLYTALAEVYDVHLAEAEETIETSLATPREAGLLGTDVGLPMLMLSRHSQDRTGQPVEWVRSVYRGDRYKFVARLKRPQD

Turning to `CC(=O)N[C@H]1C(O)O[C@H](COP(=O)(O)O)[C@@H](O)[C@@H]1O` (stereo partly shown) [N-acetylglucosamine-6-P], the “effect on formation of the complex of DasR with the nagB promoter (EMSA)” value (“effect … with the nagB promoter (EMSA)” below) is “it was the only of the compounds tested that prevented the formation of a complex” and the “effect on formation of the complex of DasR with the crr promoter region (EMSA)” value (from here on “effect … with the crr promoter region (EMSA)”) was “it was the only of the compounds tested that prevented the formation of a complex”.

Consider `CC(=O)SCCNC(=O)CCNC(=O)[C@H](O)C(C)(C)COP(=O)(O)OP(=O)(O)OC[C@H]1O[C@@H](n2cnc3c(N)ncnc32)[C@H](O)[C@@H]1OP(=O)(O)O` [acetyl-CoA], for which the “effect … with the nagB promoter (EMSA)” value is reported as “it was the only of the compounds tested that prevented the formation of a complex” and the “effect … with the crr promoter region (EMSA)” value is recorded as “it was the only of the compounds tested that prevented the formation of a complex”.

For the compound `O=C(CO)[C@@H](O)[C@H](O)[C@H](O)COP(=O)(O)O` [fructose 6-P], the “effect … with the nagB promoter (EMSA)” value is “it was the only of the compounds tested that prevented the formation of a complex” and the “effect … with the crr promoter region (EMSA)” value is listed as “it was the only of the compounds tested that prevented the formation of a complex”.

Take `N[C@H]1C(O)O[C@H](COP(=O)(O)O)[C@@H](O)[C@@H]1O` (stereo partly shown) [glucosamine-6-P, glucosamine-6-phosphate]: the “effect … with the nagB promoter (EMSA)” value was “prevented the formation of a complex” and the “effect … with the crr promoter region (EMSA)” value is reported as “prevented the formation of a complex”. In addition, the “effect … with the nagB promoter (EMSA)” value (listed as GlcN-6-P) was “release of DasR from the dre site”.

For the compound `N[C@@H](CCC(=O)O)C(=O)O` [glutamate], the “effect … with the nagB promoter (EMSA)” value is recorded as “it was the only of the compounds tested that prevented the formation of a complex” and the “effect … with the crr promoter region (EMSA)” value is recorded as “it was the only of the compounds tested that prevented the formation of a complex”.

`NC(=O)CC[C@H](N)C(=O)O` [glutamine]: the “effect … with the nagB promoter (EMSA)” value is “it was the only of the compounds tested that prevented the formation of a complex” and the “effect … with the crr promoter region (EMSA)” value is given as “it was the only of the compounds tested that prevented the formation of a complex”.
